Source: publication PMC12537922 (Nature Communications, 2025)

How the values were obtained:
PiAA7A = target: T1, PiAA7A (Phytophthora infestans, UniProt D0MXI7); settings: co-substrate O2; 25 mM MES pH 6, 20 °C, 1 nM enzyme; sigmoidal (allosteric) model
T1 construct: gene PITG_02928

PiAA7D = target: T2, PiAA7D (Phytophthora infestans, UniProt D0N574); settings: co-substrate O2; 25 mM MES pH 6, 20 °C, 1 nM enzyme; sigmoidal (allosteric) model
T2 construct: gene PITG_06591
T2 sequence (D0N574 27-508 limits assumed): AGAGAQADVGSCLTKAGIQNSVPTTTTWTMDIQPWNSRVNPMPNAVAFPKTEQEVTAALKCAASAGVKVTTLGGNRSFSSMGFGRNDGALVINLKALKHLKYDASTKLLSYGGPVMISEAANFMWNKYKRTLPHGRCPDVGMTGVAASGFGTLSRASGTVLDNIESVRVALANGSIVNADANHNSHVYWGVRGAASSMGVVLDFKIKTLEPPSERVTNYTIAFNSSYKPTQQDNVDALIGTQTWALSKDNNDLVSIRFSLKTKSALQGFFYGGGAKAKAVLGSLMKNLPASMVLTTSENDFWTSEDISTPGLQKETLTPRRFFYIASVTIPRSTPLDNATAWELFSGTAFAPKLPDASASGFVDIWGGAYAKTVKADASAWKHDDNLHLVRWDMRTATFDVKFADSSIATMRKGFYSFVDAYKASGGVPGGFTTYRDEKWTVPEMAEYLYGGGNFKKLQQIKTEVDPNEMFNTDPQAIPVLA

T1 sequence (D0MXI7 27-509 limits assumed): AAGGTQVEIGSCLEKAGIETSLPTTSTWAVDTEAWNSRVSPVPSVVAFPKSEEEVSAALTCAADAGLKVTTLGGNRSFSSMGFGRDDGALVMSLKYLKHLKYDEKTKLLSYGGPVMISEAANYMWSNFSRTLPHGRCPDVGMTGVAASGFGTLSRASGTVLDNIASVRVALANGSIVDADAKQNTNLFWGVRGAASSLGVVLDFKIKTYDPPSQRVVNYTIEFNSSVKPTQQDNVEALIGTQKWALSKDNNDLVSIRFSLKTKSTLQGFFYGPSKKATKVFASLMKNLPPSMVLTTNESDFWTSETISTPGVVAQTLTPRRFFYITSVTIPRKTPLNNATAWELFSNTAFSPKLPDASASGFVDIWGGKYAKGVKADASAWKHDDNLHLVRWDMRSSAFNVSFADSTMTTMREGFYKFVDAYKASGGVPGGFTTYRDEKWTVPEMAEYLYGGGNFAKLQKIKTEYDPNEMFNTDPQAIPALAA

Row | Structure (SMILES) | KM (PiAA7A) | KM (PiAA7D)
1 | O=C(O)[C@H]1O[C@H](O[C@@H]2[C@H](O)[C@@H](O)[C@@H](O[C@@H]3[C@H](O)[C@@H](O)C(O)O[C@@H]3C(=O)O)O[C@@H]2C(=O)O)[C@H](O)[C@@H](O)[C@H]1O (some centres unmarked) [OG3] | a sigmoidal (allosteric) model was found to be more appropriate for PiAA7A with OG3 | 
2 | O=C(O)[C@H]1O[C@H](O[C@@H]2[C@H](O)[C@@H](O)[C@@H](O[C@@H]3[C@H](O)[C@@H](O)[C@@H](O[C@@H]4[C@H](O)[C@@H](O)C(O)O[C@@H]4C(=O)O)O[C@@H]3C(=O)O)O[C@@H]2C(=O)O)[C@H](O)[C@@H](O)[C@H]1O (some centres unmarked) [OG4] |  | PiAA7D with OG4
